Measurements as given in ChEMBL document CHEMBL4373665, “Discovery of new non-acidic lonazolac analogues with COX-2 selectivity as potent anti-inflammatory agents” (Medchemcomm, 2019).
Blank lines part the entries; values can stand above or below the compound they belong to.

Legend:
[1] = test system: Rattus norvegicus; assay: Anti-inflammatory activity in albino rat model of carrageenan-induced paw edema assessed as inhibition of carrageenan-induced paw edema at 100 mg/kg, po administered as single dose prior to carrageenan challenge measured after 1 hr relative to control; type: functional
[2] = molecular target: Prostaglandin G/H synthase 1 (Homo sapiens, UniProt P23219); assay: Inhibition of human recombinant COX1 assessed as decrease in prostaglandin production using arachidonic acid as substrate pretreated for 15 mins followed by substrate addition and measured after 2 mins by enzyme immunoassay; type: single protein
Sequence of Prostaglandin G/H synthase 1 (P23219 whole entry): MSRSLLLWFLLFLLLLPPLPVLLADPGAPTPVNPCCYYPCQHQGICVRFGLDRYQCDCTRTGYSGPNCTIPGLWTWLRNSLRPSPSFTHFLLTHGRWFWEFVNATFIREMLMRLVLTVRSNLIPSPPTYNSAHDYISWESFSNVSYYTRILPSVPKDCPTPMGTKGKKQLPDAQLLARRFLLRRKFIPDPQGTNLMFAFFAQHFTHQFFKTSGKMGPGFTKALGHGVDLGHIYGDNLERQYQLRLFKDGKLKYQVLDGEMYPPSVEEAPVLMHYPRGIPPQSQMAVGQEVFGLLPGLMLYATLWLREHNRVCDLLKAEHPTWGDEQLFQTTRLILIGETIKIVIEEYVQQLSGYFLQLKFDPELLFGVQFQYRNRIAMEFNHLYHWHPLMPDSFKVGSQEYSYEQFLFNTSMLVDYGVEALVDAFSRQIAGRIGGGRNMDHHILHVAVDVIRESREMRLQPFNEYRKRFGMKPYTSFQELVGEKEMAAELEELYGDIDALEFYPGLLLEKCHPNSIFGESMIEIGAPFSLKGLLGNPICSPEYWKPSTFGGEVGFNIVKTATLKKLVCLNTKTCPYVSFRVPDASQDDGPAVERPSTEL

[3] = molecular target: T1, Prostaglandin G/H synthase 2 (Homo sapiens, UniProt P35354); assay: Inhibition of human recombinant COX2 assessed as decrease in prostaglandin production using arachidonic acid as substrate pretreated for 15 mins followed by substrate addition and measured after 2 mins by enzyme immunoassay
T1 sequence (P35354 whole entry): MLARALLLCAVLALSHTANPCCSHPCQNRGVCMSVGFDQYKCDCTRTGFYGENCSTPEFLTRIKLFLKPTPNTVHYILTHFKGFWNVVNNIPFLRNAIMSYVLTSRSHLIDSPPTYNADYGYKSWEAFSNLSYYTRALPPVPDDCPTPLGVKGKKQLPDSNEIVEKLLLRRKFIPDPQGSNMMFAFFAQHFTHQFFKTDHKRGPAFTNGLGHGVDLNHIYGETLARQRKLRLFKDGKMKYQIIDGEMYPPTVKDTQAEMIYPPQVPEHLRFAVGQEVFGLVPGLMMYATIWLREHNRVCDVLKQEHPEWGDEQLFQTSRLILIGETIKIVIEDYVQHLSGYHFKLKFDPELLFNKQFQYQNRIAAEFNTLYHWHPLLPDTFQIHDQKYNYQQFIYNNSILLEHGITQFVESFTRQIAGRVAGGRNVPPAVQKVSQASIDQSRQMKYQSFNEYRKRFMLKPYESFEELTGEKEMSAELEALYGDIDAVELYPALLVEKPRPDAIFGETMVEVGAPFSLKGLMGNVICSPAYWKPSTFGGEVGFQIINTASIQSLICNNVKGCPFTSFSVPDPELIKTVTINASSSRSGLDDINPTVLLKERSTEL

[4] = species on record: Homo sapiens; assay: Selectivity index, ratio of IC50 for human recombinant COX1 to IC50 for human recombinant COX2 using arachidonic acid as substrate
[5] = test system: Rattus norvegicus; assay: Anti-inflammatory activity in albino rat model of carrageenan-induced paw edema assessed as inhibition of carrageenan-induced paw edema at 100 mg/kg, po administered as single dose prior to carrageenan challenge measured after 4 hrs relative to control; type: functional
[6] = test system: Rattus norvegicus; assay: Anti-inflammatory activity in albino rat model of carrageenan-induced paw edema assessed as inhibition of carrageenan-induced paw edema at 100 mg/kg, po administered as single dose prior to carrageenan challenge measured after 3 hrs relative to control; type: functional
[7] = test system: Rattus norvegicus; assay: Anti-inflammatory activity in albino rat model of carrageenan-induced paw edema assessed as paw edema thickness at 100 mg/kg, po administered as single dose prior to carrageenan challenge measured after 8 hrs; type: functional
[8] = test system: Rattus norvegicus; assay: Anti-inflammatory activity in albino rat model of carrageenan-induced paw edema assessed as paw edema thickness at 100 mg/kg, po administered as single dose prior to carrageenan challenge measured after 12 hrs; type: functional
[9] = test system: Rattus norvegicus; assay: Anti-inflammatory activity in albino rat model of carrageenan-induced paw edema assessed as inhibition of carrageenan-induced paw edema at 100 mg/kg, po administered as single dose prior to carrageenan challenge measured after 8 hrs relative to control; type: functional

- IC50 [2]: 0.6 µM
- IC50 [3]: 3.99 µM
- Ratio IC50 [4]: 0.15
SMILES: Nc1nc(-c2ccc(Cl)cc2)cc(-c2cn(-c3ccccc3)nc2-c2ccc(OCc3ccccc3)cc2)n1
- inhibition in vivo at 100 mg/kg [1]: 50.8%
- inhibition in vivo at 100 mg/kg [5]: 20.4%
- inhibition in vivo at 100 mg/kg [6]: 30.4%
- Activity [7]: 2.17 mm
- Activity [8]: 1.8 mm

- IC50 [2]: 6.07 µM
- IC50 [3]: 4.69 µM
- Ratio IC50 [4]: 1.31
SMILES: NC(=S)n1nc(-c2ccc(Cl)cc2)cc1-c1cn(-c2ccccc2)nc1-c1ccc(OCc2ccccc2)cc1
- inhibition in vivo at 100 mg/kg [1]: 47.5%
- inhibition in vivo at 100 mg/kg [5]: 24.5%
- inhibition in vivo at 100 mg/kg [6]: 24.6%
- inhibition in vivo at 100 mg/kg [9]: 5.9%
- Activity [8]: 1.89 mm

- IC50 [2]: 2.72 µM
- IC50 [3]: 2.79 µM
- Ratio IC50 [4]: 0.975
SMILES: CC(=O)n1nc(-c2ccc(Cl)cc2)cc1-c1cn(-c2ccccc2)nc1-c1ccc(OCc2ccccc2)cc1
- inhibition in vivo at 100 mg/kg [1]: 69.8%
- inhibition in vivo at 100 mg/kg [5]: 25.8%
- inhibition in vivo at 100 mg/kg [6]: 49.7%
- Activity [7]: 2.17 mm
- Activity [8]: 1.82 mm

The remaining lines, values behind:

SMILES: N#CC1=C(N)OC(c2ccc(Cl)cc2)=CC1c1cn(-c2ccccc2)nc1-c1ccc(OCc2ccccc2)cc1 (stereo unspecified)
- inhibition in vivo at 100 mg/kg [1]: 28.8%
- IC50 [2]: 9.68 µM
- IC50 [3]: 11.6 µM
- Ratio IC50 [4]: 0.831
- inhibition in vivo at 100 mg/kg [5]: 18.2%
- inhibition in vivo at 100 mg/kg [6]: 38.2%
- Activity [7]: 2.31 mm
- Activity [8]: 1.85 mm

SMILES: c1ccc(COc2ccc(-c3nn(-c4ccccc4)cc3-c3cc(-c4ccccc4)no3)cc2)cc1
- inhibition in vivo at 100 mg/kg [1]: 73.8%
- IC50 [2]: 9.57 µM
- IC50 [3]: 2.11 µM
- Ratio IC50 [4]: 4.54
- inhibition in vivo at 100 mg/kg [5]: 28.4%
- inhibition in vivo at 100 mg/kg [6]: 42.5%
- inhibition in vivo at 100 mg/kg [9]: 6.9%
- Activity [8]: 1.83 mm

SMILES: S=c1nc(-c2ccccc2)cc(-c2cn(-c3ccccc3)nc2-c2ccc(OCc3ccccc3)cc2)[nH]1
- inhibition in vivo at 100 mg/kg [1]: 48.5%
- IC50 [2]: 0.31 µM
- IC50 [3]: 1 µM
- Ratio IC50 [4]: 0.31
- inhibition in vivo at 100 mg/kg [5]: 14.6%
- inhibition in vivo at 100 mg/kg [6]: 33.8%
- Activity [7]: 2.19 mm
- Activity [8]: 1.88 mm

SMILES: NC(=S)n1nc(-c2ccccc2)cc1-c1cn(-c2ccccc2)nc1-c1ccc(OCc2ccccc2)cc1
- inhibition in vivo at 100 mg/kg [1]: 3.97%
- IC50 [2]: 5.2 µM
- IC50 [3]: 5.2 µM
- Ratio IC50 [4]: 1
- inhibition in vivo at 100 mg/kg [5]: 2.15%
- inhibition in vivo at 100 mg/kg [6]: 7.29%
- Activity [7]: 2.2 mm
- Activity [8]: 1.8 mm
